By mortality is commonly meant the percentage killed. By LD50 is commonly meant the dose at which mortality reaches 50%.

This is an account of results in US4474775A, “Pyrazol-4-yl phosphates and insecticidal and acaricidal use” (priority 1979, dated 1984).

One data set relates to Unaspis yanonensis. The experiment in a line: Effectiveness against Unaspis yanonensis (Testing Example 3). Type of data set: in vivo. The following applies: 480 h, second-instar larvae, 500 ppm wettable powder suspension sprayed, 20th day after spraying. How it is done:
Testing Example 3: Effectiveness of Unaspis yanonensis
A test compound was processed into a wettable powder in accordance with the formulation of Example 7, and was diluted with water (with Dyne®, spreading agent, as diluted 3000-fold) to prepare a 500 ppm aqueous suspension. 20 ml of the aqueous suspension was sprayed on second-instar larvae (10 to 50 of the number parasitized) of Unaspis yanonensis on a seedling of Citrus trifoliate (2 months after germination) being planted in a pot (9 cm in diameter). After the sprayed pot was transferred to a greenhouse (25° to 30°C.), adult insects were counted on the 20th day after spraying. Mortality (%) is calculated by the following equation: [formula]

Data set [1] in a line: Oral acute toxicity in mice (Toxicological Test). The following applies: mouse, in vivo, five-week aged ddY-SLC strained male mice. An excerpt: Below tabulated are the oral acute toxicity values obtained with five-week aged, ddY-SLC strained male mice: […]
The test system of data set [2] is Laodelphax striatellus. The experiment in a line: Effectiveness against Laodelphax striatellus, third-instar larvae, root dip (Testing Example 1 (a)). Type of data set: in vivo. Particulars: 40 ppm emulsifiable concentrate dilution, root dip 2 hours, 28° C., 24 hours, read-out: Mortality (I). On the procedure: (§1) Testing Example 1: Effectiveness against Laodelphax striatellus
(a) A test compound was processed into an emulsifiable concentrate in accordance with the formulation of Example 6, followed by diluting with water to prepare a treating solution of a 40 ppm concentration. 2.5 ml of the treating solution was placed into a test tube (with 1.7 cm of diameter, 4 cm deep), in which three seedlings of a paddy-rice plant (on the 7th day after germination) were allowed to stand so their root portions were dipped into the solution for 2 hours. The seedlings were then transferred into a test tube having 1 ml water placed in the bottom, and ten third-instar larvae of Laodelphax striatellus were released. After allowing the test tube to stand in the room (28° C.) for 24 hours, the dead larvae were counted. The test is repeated twice, and the test results are tabulated, in terms of mortality, in Table 2 (I).

Data set [3] has as its system Laodelphax striatellus. Description: Effectiveness against Laodelphax striatellus, adults, dust on paddy-rice plant (Testing Example 1 (b)). Type of data set: in vivo. Particulars: small brown planthopper, adults on dusted rice, 24 h. On the procedure:
as §1
(b) A test compound was processed into a dust preparation in accordance with the formulation of Example 8, and […] of the preparation was dusted on the potted paddy-rice plant (1/5,000 a) by the Berger Duster method. After dusting, leaves (15 cm long) of the paddy rice were cut off and were placed in a test tube containing 1 ml of water in the bottom, and ten adults of Laodelphax striatellus were released therein. After allowing the test tube to stand in the room (28° C.) for 24 hours, the dead insects were counted.

A further data set relates to Spodoptera litura. The experiment in a line: Effectiveness against Spodoptera litura (Testing Example 2). The following applies: second-instar larvae, 500 ppm spray on soybean, 28° C., 24 hours. Type of data set: in vivo. On the procedure: Testing Example 2: Effectiveness against Spodoptera litura
Twenty milliliters of a 500 ppm, water-diluted solution (with Dyne® Takeda Chem. Ind. Ltd., spreading agent, as diluted 3000-fold) of the test compound (the emulsifiable concentrate of Example 6) was sprayed on grown seedlings (10 days after germination) of soybean plant water-cultured in a polyethylene cup by the use of a spray gun (nozzle pressure of 1 kg/cm^2 gauge) in a spraying chamber. 2 hours after spraying, two main leaves of soybean plant were cut off and were placed into two cups (6 cm in diameter and 4 cm in depth), respectively, and ten second-instar larvae of Spodoptera litura were liberated. The cups were left in the room (28° C.) for 24 hours, and the dead larvae were counted.

The next data set relates to Tetranychus urticae. Description: Effectiveness against Tetranychus urticae (Testing Example 4). Type of data set: in vivo. Particulars: decrease rate grade, 500 ppm spray on kidney bean plant; for Efficacy grading, 2nd day: 2nd day after spraying; for Efficacy grading, 7th day: 7th day after spraying. How it is done:
Testing Example 4: Effectiveness against Tetranychus urticae
A test compound was processed into an emulsifiable concentrate in accordance with the formulation of Example 6, and diluted with water (with Dyne®, spreading agent, as diluted 3000-fold) to prepare a 500 ppm aqueous solution. Ten female adults of Tetranychus urticae) were infected on the seedling of a kidney bean plant water-cultured in a polyethylene cup, and the cups were placed in a glass chamber (28° C.) for 24 hours, followed by spraying 20 ml of the aqueous solution on the kidney bean plant. After the sprayed cup was placed again in the glass chamber, the number of the adults and larvae living on the leaves was counted on the 2nd and 7th days after spraying. The test was repeated twice, and the test results are tabulated in Table 5 in terms of the efficacy grading as determined by calculating a decrease rate by the following equation:
Decrease rate (%)=[(number of mites tested-number of larvae living on the day of inspection)/(number of mites tested)]×100

On to `CCOP(=S)(OCC)Oc1cnn(-c2ccc(C)cc2C)c1` [compound 34], for which, in the data set with Unaspis yanonensis, the mortality at 500 µg/mL was found to be 79%. The compound also showed an LD50 in data set [1] of over 300 mg/kg.
Turning to `CCCSP(=O)(OCC)Oc1cnn(-c2cc(Cl)cc(Cl)c2)c1` (centres unmarked) [compound 33], the mortality at 40 µg/mL in the data set on Laodelphax striatellus [2] worked out at 100%. The “Mortality (II)” value with Laodelphax striatellus [3] is 65%. For the same compound, the mortality at 500 ppm in the data set on Spodoptera litura was 100%. Moreover, the mortality at 500 µg/mL with Unaspis yanonensis turned out to be 70%. In the data set on Tetranychus urticae, the “Efficacy grading, 2nd day” value is 3 (Not less than 90) and the “Efficacy grading, 7th day” value was 3 (Not less than 90). Also, the LD50 in data set [1] is over 300 mg/kg.
As to `CCCSP(=O)(OCC)Oc1cnn(-c2ccc(C)cc2C)c1` (centres unmarked) [compound 35], the mortality at 500 ppm with Spodoptera litura is 100%. In the data set with Unaspis yanonensis, this compound returned a mortality at 500 µg/mL of 82%. Further, in the data set with Tetranychus urticae, the “Efficacy grading, 2nd day” value is recorded as 3 (Not less than 90) and the “Efficacy grading, 7th day” value was 3 (Not less than 90). The 50% lethal dose (LD50) in data set [1] was about 300 mg/kg.
As to `CCCSP(=O)(OCC)Oc1cnn(-c2ccc(Cl)cc2Cl)c1` (centres unmarked) [compound 29], in the data set with Laodelphax striatellus [2], the mortality at 40 µg/mL is 95%. Besides, the “Mortality (II)” value in the data set on Laodelphax striatellus [3] was 30%. The same compound had a mortality at 500 ppm in the data set with Spodoptera litura of 100%. Also, the mortality at 500 µg/mL in the data set with Unaspis yanonensis worked out at 97%. Besides, in the data set with Tetranychus urticae, the “Efficacy grading, 2nd day” value was 3 (Not less than 90) and the “Efficacy grading, 7th day” value was 3 (Not less than 90). This compound returned a median lethal dose (LD50) in data set [1] of about 300 mg/kg.
With `CCCSP(=O)(OCC)Oc1cnn(-c2ccccc2C)c1` (centres unmarked) [compound 22], in the data set with Laodelphax striatellus [2], the mortality at 40 µg/mL was 85%. The “Mortality (II)” value in the data set with Laodelphax striatellus [3] is 63%. Besides, the mortality at 500 ppm in the data set with Spodoptera litura stood at 100%. Besides, in the data set on Tetranychus urticae, the “Efficacy grading, 2nd day” value is listed as 3 (Not less than 90) and the “Efficacy grading, 7th day” value is reported as 3 (Not less than 90). Further, the median lethal dose (LD50) in data set [1] is about 300 mg/kg.
In the case of `COP(=S)(OC)Oc1cnn(-c2ccccc2)c1` [Compound No. 1], the mortality at 500 µg/mL with Unaspis yanonensis stood at 86%. Moreover, in the data set on Tetranychus urticae, the “Efficacy grading, 2nd day” value is reported as 3 (Not less than 90) and the “Efficacy grading, 7th day” value is on record as 3 (Not less than 90). For the same compound, the LD50 in data set [1] is over 300 mg/kg.
In the data set with Spodoptera litura, `CCCSP(=O)(OCC)Oc1cnn(-c2ccccc2Cl)c1` (centres unmarked) [compound 12] yielded a mortality at 500 ppm of 100%. This compound also came in with a mortality at 500 µg/mL in the data set on Unaspis yanonensis of 71%. In the data set on Tetranychus urticae, the “Efficacy grading, 2nd day” value was 3 (Not less than 90) and the “Efficacy grading, 7th day” value is listed as 3 (Not less than 90). The compound further showed an LD50 in data set [1] of over 300 mg/kg.
Take `CCCSP(=O)(OCC)Oc1cnn(-c2ccc(CCC)cc2)c1` (centres unmarked) [compound 24]: the mortality at 40 µg/mL in the data set on Laodelphax striatellus [2] came to 85%. Also, the “Mortality (II)” value in the data set on Laodelphax striatellus [3] worked out at 50%. In the data set on Spodoptera litura, this compound registered a mortality at 500 ppm of 100%. Besides, in the data set with Tetranychus urticae, the “Efficacy grading, 2nd day” value was 3 (Not less than 90) and the “Efficacy grading, 7th day” value is on record as 3 (Not less than 90). This compound showed a median lethal dose (LD50) in data set [1] of over 300 mg/kg.
Consider `CCCSP(=O)(OCC)Oc1cnn(-c2ccc(Cl)cc2)c1` (centres unmarked) [Compound No. 16, O-ethyl-O-[1-(4-chlorophenyl)pyrazol-4-yl]-S-n-propyl phosphorothiolate], for which, in the data set with Laodelphax striatellus [2], the mortality at 40 µg/mL turned out to be 97%. For the same compound, in the data set on Laodelphax striatellus [3], the “Mortality (II)” value worked out at 75%. The mortality at 500 ppm with Spodoptera litura was determined as 100%. Also, in the data set with Tetranychus urticae, the “Efficacy grading, 2nd day” value was 3 (Not less than 90) and the “Efficacy grading, 7th day” value is listed as 3 (Not less than 90). The compound further gave a 50% lethal dose (LD50) in data set [1] of over 300 mg/kg.
For the compound `CCCOP(=S)(OCC)Oc1cnn(-c2ccccc2)c1` (centres unmarked) [Compound No. 3], the mortality at 500 µg/mL in the data set on Unaspis yanonensis was found to be 79%. Also, in the data set on Tetranychus urticae, the “Efficacy grading, 2nd day” value is recorded as 3 (Not less than 90) and the “Efficacy grading, 7th day” value was 0 (Not more than 20). This compound came in with a median lethal dose (LD50) in data set [1] of over 300 mg/kg.
As to `CCCSP(=S)(OCC)Oc1cnn(-c2ccc(OC)cc2)c1` (centres unmarked) [compound 25], in the data set with Spodoptera litura, the mortality at 500 ppm turned out to be 100%. Further, in the data set with Unaspis yanonensis, the mortality at 500 µg/mL was 100%. In the data set with Tetranychus urticae, the “Efficacy grading, 2nd day” value is given as 3 (Not less than 90) and the “Efficacy grading, 7th day” value is listed as 3 (Not less than 90). Also, the LD50 in data set [1] is over 300 mg/kg.
As for `CCCSP(=O)(OCC)Oc1cnn(-c2ccccc2)c1` (centres unmarked) [Compound No. 4, O-ethyl-O-(1-phenylpyrazol-4-yl)-S-n-propylphosphorothiolate], in the data set with Spodoptera litura, the mortality at 500 ppm was 100%. In the data set on Unaspis yanonensis, this compound displayed a mortality at 500 µg/mL of 84%. In the data set with Tetranychus urticae, the “Efficacy grading, 2nd day” value was 3 (Not less than 90) and the “Efficacy grading, 7th day” value was 3 (Not less than 90). Also, the LD50 in data set [1] was over 300 mg/kg.
In the data set on Unaspis yanonensis, `CCOP(=S)(OCC)Oc1cnn(-c2ccccc2)c1` [compound 2] had a mortality at 500 µg/mL of 75%. The compound further yielded an LD50 in data set [1] of over 300 mg/kg.
Take `CCCSP(=O)(OCC)Oc1cnn(-c2ccc(Cl)c(Cl)c2)c1` (centres unmarked) [Compound No. 31, O-ethyl-O-[3,4-dichlorophenyl)pyrazol-4-yl]-S-n-propyl phosphorothiolate]: in the data set on Laodelphax striatellus [2], the mortality at 40 µg/mL turned out to be 100%. The “Mortality (II)” value in the data set on Laodelphax striatellus [3] is reported as 90%. This compound also yielded a mortality at 500 ppm with Spodoptera litura of 100%. The compound further gave a mortality at 500 µg/mL with Unaspis yanonensis of 75%. For the same compound, in the data set on Tetranychus urticae, the “Efficacy grading, 2nd day” value is reported as 3 (Not less than 90) and the “Efficacy grading, 7th day” value was 3 (Not less than 90). This compound returned an LD50 in data set [1] of over 300 mg/kg.
Regarding `CCCSP(=O)(OCC)Oc1cnn(-c2cc(Cl)c(Cl)cc2Cl)c1` (centres unmarked) [compound 42], in the data set with Laodelphax striatellus [2], the mortality at 40 µg/mL turned out to be 100%. Further, the “Mortality (II)” value in the data set with Laodelphax striatellus [3] is listed as 40%. For the same compound, in the data set on Spodoptera litura, the mortality at 500 ppm was 100%. Moreover, in the data set with Tetranychus urticae, the “Efficacy grading, 2nd day” value is 3 (Not less than 90) and the “Efficacy grading, 7th day” value is given as 3 (Not less than 90). Moreover, in data set [1], the 50% lethal dose (LD50) is over 300 mg/kg.
With `CCCSP(=O)(OCC)Oc1cnn(-c2ccc(F)cc2)c1` (centres unmarked) [compound 18], the mortality at 40 µg/mL with Laodelphax striatellus [2] was found to be 100%. Further, in the data set on Laodelphax striatellus [3], the “Mortality (II)” value worked out at 100%. In addition, the mortality at 500 ppm in the data set on Spodoptera litura was 100%. Besides, in the data set with Tetranychus urticae, the “Efficacy grading, 2nd day” value is 3 (Not less than 90) and the “Efficacy grading, 7th day” value is listed as 3 (Not less than 90). The compound also yielded a 50% lethal dose (LD50) in data set [1] of over 300 mg/kg.
